The record followed here is patent US12617817B2, “Carrier peptide fragment and use thereof” (TOAGOSEI CO., LTD., priority 2020, dated 2026).

The test system of the assay is HeLa cells. The assay can be described thus: Evaluating cell penetrating ability by flow cytometry (FAM fluorescence) in HeLa cells. Format: cell-based, human. The following applies: for shift of flow cytometry histogram on the X-axis (fluorescent intensity) in comparison with Example 3 (only FAM): FIG. 1; for MFI (mean fluorescent intensity): additive 10 μM, 0.5% DMSO, 20 hours incubation at 37° C., flow cytometry FL2 detector, average of triplicate. On the procedure: The cell penetrating ability of sample 1 and sample 2 was evaluated using HeLa cells (cell line established from human cervical cancer cells). In Table 2, Example 1 indicates a test of addition of sample 1 to a culture solution of HeLa cells, Example 2 indicates a test of addition of sample 2, Example 3 indicates a test of addition of FAM diluted with DMSO, and Example 4 indicates a test of addition of DMSO only.
HeLa cells were cultured in an ordinary culture medium, DMEM (Dulbecco's modified Eagle's medium, manufactured by Fuji Film Wako Pure Chemical Industries, Cat. No. 043-30085) containing 10% FBS (fetal bovine serum).
HeLa cells adhering to the culture plate were washed with PBS, 0.25% trypsin/EDTA solution was added, and the cells were incubated for 3 minutes at 37° C. After incubation, the same DMEM medium containing 10% FBS was added to deactivate the trypsin, and the cells were precipitated by 5 minutes of centrifugation at 150×g. The supernatant produced by centrifugation was removed, and the same DMEM containing 10% FBS was added to the precipitate (cell pellet) to prepare an approximately 1×10^5 cells/mL cell suspension. 2 mL of the cell suspension was added to the wells of a commercial 6-well plate (Iwaki microplate commercially available from AGC techno glass Co., Ltd) to seed the cells at a rate of approximately 2×10^5 cells/well. This was then cultured for 3 hours at 37° C. under conditions of 5% CO2, causing the cells to adhere to the bottom of the wells. Because the cell penetrating ability evaluation is performed in triplicate, cells were seeded in 3 wells for the test of Example 1, and the following operations were performed on each well.
Next, the above 2 mM sample solution 1 was diluted with the above DMEM containing 10% FBS to prepare a sample solution 1 in which the concentration of the sample 1 was 20 μM. 1 mL of the culture supernatant was removed from each well after the 3 hours of culture, and 1 mL of 20 μM sample solution 1 was added to the well so that the sample 1 concentration of the culture solution in the well was 10 μM and the DMSO concentration was 0.5%. This was then incubated for 20 hours at 37° C. under conditions of 5% CO2. After this 20-hour incubation, the culture supernatant was removed from the well, and the cells in the well were washed twice with 1 mL of PBS. 200 μL of 0.25% trypsin/EDTA solution was then added to the well, and the cells were incubated for 3 minutes at 37° C. After this incubation, 400 μL of the above DMEM containing 10% FBS was added to the well to deactivate the trypsin, after which the cell suspension in the well was transferred to a tube, and the cells were collected. 600 μL of PBS was then added to each well to wash the well. The PBS in the well was then transferred to the above tube to collect the cells remaining in the well in the tube. This tube was centrifuged for 5 minutes under conditions of 210×g at 4° C. After centrifugation the supernatant was removed, and the precipitate (cell pellet) was suspended (washed) in 1 mL of PBS and centrifuged under the same conditions. This operation was repeated twice to remove the supernatant and obtain cells (a cell pellet) that had been cultured in medium containing the sample 1.
The cells (cell pellet) obtained above were analyzed by flow cytometry to assess the cell penetrating ability of the sample 1. A flow cytometer (On-Chip Biotechnologies Co., Ltd.) was used for the analysis.
The cell pellet obtained above was suspended in 50 μL of PBS for purposes of this analysis. A further 50 μL of 2× sample buffer for flow cytometry was added to this suspension to prepare a cell suspension for analysis.
Gating was performed with the flow cytometer based on forward scatter (FSC) and side scatter (SSC), a gate was set for the cell population under analysis, and the cell population within this gate was measured for fluorescent intensity. Analysis was performed so that the cell population composed of at least 5,000 cells. […]
In general terms: A flow cytometer gives signals particle by particle.

FAM = fluorescein amidite (fluorescent dye, FAM)

Take “FAM-KKRTLRKNDRKKR-CONH2 ({FAM}-KKRTLRKNDRKKR-NH2) [Example 2]”: the “MFI (mean fluorescent intensity)” value was found to be 15.5. Moreover, under “10 μM, 20 hours”, the “shift of flow cytometry histogram on the X-axis (fluorescent intensity) in comparison with Example 3 (only FAM)” value is listed as “shifted to the right”.

Take “FAM-KKRTLRKSNRKKR-CONH2 ({FAM}-KKRTLRKSNRKKR-NH2) [Example 1]”: the “MFI (mean fluorescent intensity)” value amounted to 62. The “shift of flow cytometry histogram on the X-axis (fluorescent intensity) in comparison with Example 3 (only FAM)” value (10 μM, 20 hours) is “shifted to the right”. Besides, the “efficiency (cell penetrating ability), times higher than Example 2, from MFI values” (10 μM, 20 hours, comparison of MFI of Example 1 with Example 2) came out at 4 times.

In the case of 5(6)-carboxyfluorescein [Example 3], the “MFI (mean fluorescent intensity)” value is 6.
